Data published in US20230279025A1, “KRAS G12D INHIBITORS” (Mirati Therapeutics, Inc., priority 2020, published 2023).
Where a name gives a salt, the structure may show the parent alone.

Tests used:
KRas G12D [1] = target: T1, KRas G12D (Homo sapiens (Human), UniProt P01116, G12D); test: KRas G12D Binding Assay (TR-FRET displacement of Cy5 labelled tracer); details: GDP-loaded KRAS G12D (amino acids 1:169), 60 minute incubation at 22° C.
Description: After a 60 minute incubation at 22° C., the reaction was measured using a PerkinElmer EnVision multimode plate reader via TR-FRET dual wavelength detection, and the percent of control (POC) calculated using a ratiometric emission factor. […] The POC values were fit to a 4-parameter logistic curve and the IC50 value was determined as the concentration where the curve crosses 50 POC.
ND stands for “not determined.”
Target sequence in this assay (P01116 other isoform, or with tags, fused parts or gaps G12D): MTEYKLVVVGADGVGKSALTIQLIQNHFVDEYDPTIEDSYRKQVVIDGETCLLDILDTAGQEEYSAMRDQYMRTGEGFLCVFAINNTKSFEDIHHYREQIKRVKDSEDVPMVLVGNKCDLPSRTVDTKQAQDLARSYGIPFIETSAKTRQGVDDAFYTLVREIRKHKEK

KRas G12D [2] = target: T1, KRas G12D; test: KRas G12D Surface Plasmon Resonance (SPR) Binding Assay; details: Biacore T200, immobilized biotinylated KRAS protein, 1:1 binding model
Target sequence in this assay (P01116-2 other isoform, or with tags, fused parts or gaps G12D): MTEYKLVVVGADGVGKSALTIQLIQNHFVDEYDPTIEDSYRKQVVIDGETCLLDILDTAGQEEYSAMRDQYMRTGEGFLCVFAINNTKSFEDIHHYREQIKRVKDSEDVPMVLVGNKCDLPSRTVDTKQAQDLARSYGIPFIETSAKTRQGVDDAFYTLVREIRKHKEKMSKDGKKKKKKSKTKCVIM

SMILES | IC50 (KRas G12D [1]) | Kd (KRas G12D [2])
CC1(N)CN(c2nc(N3C[C@H]4CC[C@@H](C3)N4)c3cnc(-c4cc(O)cc5ccccc45)c(F)c3n2)C1 [Example 124, 4-(2-(3-amino-3-methylazetidin-1-yl)-4-((1R,5S)-3,8-diazabicyclo[3.2.1]octan-3-yl)-8-fluoropyrido[4,3-d]pyrimidin-7-yl)naphthalen-2-ol] | 8.6 nM | 0.0227 µM
CN1CCC[C@H]1COc1nc(N2CC3CCC(C)(C2)N3)c2cnc(-c3cc(O)cc4ccccc34)c(F)c2n1 (stereo partly drawn) [Example 156, 4-(8-fluoro-4-(1-methyl-3,8-diazabicyclo[3.2.1]octan-3-yl)-2-(((S)-1-methylpyrrolidin-2-yl)methoxy)pyrido[4,3-d]pyrimidin-7-yl)naphthalen-2-ol bis(2,2,2-trifluoroacetate)] | 9.1 nM | 500 µM
Cc1cccc2cccc(-c3cc4nc(OC[C@@H]5CCCN5C)nc(N5C[C@H]6CC[C@@H](C5)N6)c4cn3)c12 [Example 116, 4-((1R,5S)-3,8-diazabicyclo[3.2.1]octan-3-yl)-7-(8-methylnaphthalen-1-yl)-2-(((S)-1-methylpyrrolidin-2-yl)methoxy)pyrido[4,3-d]pyrimidine] | 1440 nM | 3.63 µM
Oc1cc(-c2ncc3c(N4C[C@H]5CC[C@@H](C4)N5)nc(OCC(F)(F)C(F)F)nc3c2F)c2ccccc2c1 [Example 52, 4-(4-((1R,5S)-3,8-diazabicyclo[3.2.1]octan-3-yl)-8-fluoro-2-(2,2,3,3-tetrafluoropropoxy)pyrido[4,3-d]pyrimidin-7-yl)naphthalen-2-ol] | 318 nM | 0.507 µM
COCCOc1nc(N2C[C@H]3CC[C@@H](C2)N3)c2cnc(-c3cc(O)cc4ccccc34)c(F)c2n1 [Example 70, 4-(4-((1R,5S)-3,8-diazabicyclo[3.2.1]octan-3-yl)-8-fluoro-2-(2-methoxyethoxy)pyrido[4,3-d]pyrimidin-7-yl)naphthalen-2-ol] | 356 nM | 0.417 µM
Oc1cc(-c2ncc3c(N4C[C@H]5CC[C@@H](C4)N5)nc(OCCC(F)(F)F)nc3c2F)c2ccccc2c1 [Example 81, 4-(4-((1R,5S)-3,8-diazabicyclo[3.2.1]octan-3-yl)-8-fluoro-2-(3,3,3-trifluoropropoxy)pyrido[4,3-d]pyrimidin-7-yl)naphthalen-2-ol] | 153 nM | 0.321 µM
CN1C[C@H](F)C[C@H]1COc1nc(N2C[C@H]3CC[C@@H](C2)N3)c2cnc(-c3cccc4cccc(Cl)c34)c(F)c2n1 [Example 115, 4-((1R,5S)-3,8-diazabicyclo[3.2.1]octan-3-yl)-7-(8-chloronaphthalen-1-yl)-8-fluoro-2-(((2S,4R)-4-fluoro-1-methylpyrrolidin-2-yl)methoxy)pyrido[4,3-d]pyrimidine] | 174 nM | 333 µM
CN1CCC[C@H]1COc1nc(N2C[C@H]3CC[C@@H](C2)N3)c2cnc(-c3cccc4ccc(F)cc34)c(F)c2n1 [Example 19, 4-((1R,5S)-3,8-diazabicyclo[3.2.1]octan-3-yl)-8-fluoro-7-(7-fluoronaphthalen-1-yl)-2-(((S)-1-methylpyrrolidin-2-yl)methoxy)pyrido[4,3-d]pyrimidine] | 122 nM | 0.665 µM
Fc1c(-c2cccc3cccc(Cl)c23)ncc2c(N3CC4CC(F)C(C3)N4)nc(OC[C@@]34CCCN3C[C@H](F)C4)nc12 (stereo partly drawn) [Example 396, 7-(8-chloronaphthalen-1-yl)-8-fluoro-4-(6-fluoro-3,8-diazabicyclo[3.2.1]octan-3-yl)-2-((2-fluorotetrahydro-1H-pyrrolizin-7a(5H)-yl)methoxy)pyrido[4,3-d]pyrimidine] | 207 nM | 0.0348 µM
Cn1ccnc1CCOc1nc(N2C[C@H]3C[C@@H](O)[C@@H](C2)N3)c2cnc(-c3cccc4cccc(Cl)c34)c(F)c2n1 [Example 173, (1R,5R,6R)-3-(7-(8-chloronaphthalen-1-yl)-8-fluoro-2-(2-(1-methyl-1H-imidazol-2-yl)ethoxy)pyrido[4,3-d]pyrimidin-4-yl)-3,8-diazabicyclo[3.2.1]octan-6-ol] | 99.2 nM | 0.117 µM
Oc1cc(-c2ncc3c(N4C[C@H]5CC[C@@H](C4)N5)nc(OC4CCSCC4)nc3c2F)c2ccccc2c1 [Example 79, 4-(4-((1R,5S)-3,8-diazabicyclo[3.2.1]octan-3-yl)-8-fluoro-2-((tetrahydro-2H-thiopyran-4-yl)oxy)pyrido[4,3-d]pyrimidin-7-yl)naphthalen-2-ol] | 336 nM | > 1000 µM
Cn1ccnc1CCNc1nc(N2C[C@H]3CC[C@@H](C2)N3)c2cnc(-c3cc(O)cc4ccccc34)c(F)c2n1 [Example 111, 4-(4-((1R,5S)-3,8-diazabicyclo[3.2.1]octan-3-yl)-8-fluoro-2-((2-(1-methyl-1H-imidazol-2-yl)ethyl)amino)pyrido[4,3-d]pyrimidin-7-yl)naphthalen-2-ol] | 281 nM | 0.276 µM
CN1CCC[C@H]1COc1nc(N2C[C@H]3CC[C@@H](C2)N3)c2cnc(-c3cccc4cccc(CCC#N)c34)c(F)c2n1 [Example 117, 3-(8-(4-((1R,5S)-3,8-diazabicyclo[3.2.1]octan-3-yl)-8-fluoro-2-(((S)-1-methylpyrrolidin-2-yl)methoxy)pyrido[4,3-d]pyrimidin-7-yl)naphthalen-1-yl)propanenitrile bis(2,2,2-trifluoroacetate)] | 732 nM | 1 µM
Fc1c(-c2cccc3cccc(Cl)c23)ncc2c(N3C[C@H]4CC[C@@H](C3)N4)nc(OCCn3cccn3)nc12 [Example 147, 2-(2-(1H-pyrazol-1-yl)ethoxy)-4-((1R,5S)-3,8-diazabicyclo[3.2.1]octan-3-yl)-7-(8-chloronaphthalen-1-yl)-8-fluoropyrido[4,3-d]pyrimidine] | 5880 nM | 18.8 µM
OCCCOc1nc(N2C[C@H]3CC[C@@H](C2)N3)c2cnc(-c3cc(O)cc4ccccc34)c(F)c2n1 [Example 75, 4-(4-((1R,5S)-3,8-diazabicyclo[3.2.1]octan-3-yl)-8-fluoro-2-(3-hydroxypropoxy)pyrido[4,3-d]pyrimidin-7-yl)naphthalen-2-ol] | 240 nM | 0.304 µM
COCCN1CCC(Oc2nc(N3C[C@H]4CC[C@@H](C3)N4)c3cnc(-c4cccc5ccccc45)c(F)c3n2)CC1 [Example 39, 4-((1R,5S)-3,8-diazabicyclo[3.2.1]octan-3-yl)-8-fluoro-2-((1-(2-methoxyethyl)piperidin-4-yl)oxy)-7-(naphthalen-1-yl)pyrido[4,3-d]pyrimidine] | > 10000 nM | 67.8 µM
CCOC(=O)CCCOc1nc(N2C[C@H]3CC[C@@H](C2)N3)c2cnc(-c3cccc4cccc(Cl)c34)c(F)c2n1 [Example 319, Ethyl 4-((4-((1R,5S)-3,8-diazabicyclo[3.2.1]octan-3-yl)-7-(8-chloronaphthalen-1-yl)-8-fluoropyrido[4,3-d]pyrimidin-2-yl)oxy)butanoate] | > 10000 nM | 256 µM
Cn1nccc1COc1nc(N2C[C@H]3CC[C@@H](C2)N3)c2cnc(-c3cc(O)cc4ccccc34)c(F)c2n1 [Example 5, 4-(4-((1R,5S)-3,8-diazabicyclo[3.2.1]octan-3-yl)-8-fluoro-2-((1-methyl-1H-pyrazol-5-yl)methoxy)pyrido[4,3-d]pyrimidin-7-yl)naphthalen-2-ol] | 723 nM | 0.295 µM
CN1CCC[C@H]1COc1nc(N2C[C@H]3CC[C@@H](C2)N3)c2cnc(-c3cc(O)cc4ccccc34)cc2n1 [Example 1, 4-(4-((1R,5S)-3,8-diazabicyclo[3.2.1]octan-3-yl)-2-(((S)-1-methylpyrrolidin-2-yl)methoxy)pyrido[4,3-d]pyrimidin-7-yl)naphthalen-2-ol tris-hydrochloride salt] | 125 nM | 0.0977 µM
CN1CCC[C@H]1COc1nc(N2C[C@H]3CC[C@@H](C2)N3)c2cnc(-c3cc(O)c(Br)c4ccccc34)c(F)c2n1 [Example 14, 4-(4-((1R,5S)-3,8-diazabicyclo[3.2.1]octan-3-yl)-8-fluoro-2-(((S)-1-methylpyrrolidin-2-yl)methoxy)pyrido[4,3-d]pyrimidin-7-yl)-1-bromonaphthalen-2-ol] | 73.9 nM | 0.0051 µM
CN1CCC[C@H]1COc1nc(N2C[C@H]3CC[C@@H](C2)N3)c2cnc(-c3cccc4c3C3(CC4)CC3)c(F)c2n1 [Example 162, 4-((1R,5S)-3,8-diazabicyclo[3.2.1]octan-3-yl)-7-(2′,3′-dihydrospiro[cyclopropane-1,1′-inden]-7′-yl)-8-fluoro-2-(((S)-1-methylpyrrolidin-2-yl)methoxy)pyrido[4,3-d]pyrimidine bis(2,2,2-trifluoroacetate)] | 677 nM | 0.555 µM
CN1C[C@H](F)C[C@H]1COc1nc(N2C[C@H]3CC[C@@H](C2)N3)c2cnc(-c3cc(O)cc4ccccc34)c(F)c2n1 [Example 16, 4-(4-((1R,5S)-3,8-diazabicyclo[3.2.1]octan-3-yl)-8-fluoro-2-(((2S,4R)-4-fluoro-1-methylpyrrolidin-2-yl)methoxy)pyrido[4,3-d]pyrimidin-7-yl)naphthalen-2-ol] | 54.1 nM | 0.0313 µM
Oc1cc(-c2ncc3c(N4C[C@H]5CC[C@@H](C4)N5)nc(OCC4CCCC4)nc3c2F)c2ccccc2c1 [Example 73, 4-(4-((1R,5S)-3,8-diazabicyclo[3.2.1]octan-3-yl)-2-(cyclopentylmethoxy)-8-fluoropyrido[4,3-d]pyrimidin-7-yl)naphthalen-2-ol] | 573 nM | 667 µM
Cc1cccc(F)c1-c1ncc2c(N3C[C@H]4CC[C@@H](C3)N4)nc(OCCc3nccn3C)nc2c1F [Example 316, 4-((1R,5S)-3,8-diazabicyclo[3.2.1]octan-3-yl)-8-fluoro-7-(2-fluoro-6-methylphenyl)-2-(2-(1-methyl-1H-imidazol-2-yl)ethoxy)pyrido[4,3-d]pyrimidine] | > 10000 nM | 157 µM
